From patent publication US9815796B2 (Merck Sharp & Dohme Corp., priority 2013, dated 2017) come the findings set out here.

One assay addresses Rhesus PDE2A3 (Macaca mulatta, UniProt B3VTJ2). In words: PDE2 fluorescence polarization (IMAP FP) inhibition assay, rhesus enzyme. The format is biochemical, rhesus macaque. The gist of the method: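 Rhesus PDE2A3 came from lysate of transiently transfected AD293 cells, diluted to give 20% substrate conversion. Substrate was 50 nM FAM-cAMP with 1 uM cGMP activator in Tris pH 7.2/MgCl2 buffer, run 60 min at room temperature over 10-point 3-fold dilutions in 1% DMSO. Read-out was IMAP fluorescence polarization (mP) after ≥1 h binding.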

A further assay addresses human PDE2A1 (Homo sapiens (Human), UniProt O00408). In words: IMAP FP PDE selectivity panel, human PDE2A1. In kind it is biochemical. The gist of the method:
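GST-tagged human PDE2A1 expressed in insect cells, run at room temperature for 60 min with 50 nM FAM-cAMP containing 1000 nM cGMP, pH 7.2 Tris/MgCl2 buffer. IMAP fluorescence polarization read after binding step.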

Setting [1] is: Rhesus PDE2, Lab A, read-out: Rhesus PDE2 Ki (nM) - Lab A.
The mark [2] stands for this setting: Rhesus PDE2, Lab B, read-out: Rhesus PDE2 Ki (nM) - Lab B.
The mark [3] stands for this setting: Human PDE2, Lab B, read-out: Human PDE2 Ki (nM) - Lab B.
[4] abbreviates: Human PDE2, Lab A, read-out: Human PDE2 Ki (nM) - Lab A.

Like-named read-outs stand apart in the source and are kept apart here.

Sequence of human PDE2A1 (O00408 other isoform, or with tags, fused parts or gaps): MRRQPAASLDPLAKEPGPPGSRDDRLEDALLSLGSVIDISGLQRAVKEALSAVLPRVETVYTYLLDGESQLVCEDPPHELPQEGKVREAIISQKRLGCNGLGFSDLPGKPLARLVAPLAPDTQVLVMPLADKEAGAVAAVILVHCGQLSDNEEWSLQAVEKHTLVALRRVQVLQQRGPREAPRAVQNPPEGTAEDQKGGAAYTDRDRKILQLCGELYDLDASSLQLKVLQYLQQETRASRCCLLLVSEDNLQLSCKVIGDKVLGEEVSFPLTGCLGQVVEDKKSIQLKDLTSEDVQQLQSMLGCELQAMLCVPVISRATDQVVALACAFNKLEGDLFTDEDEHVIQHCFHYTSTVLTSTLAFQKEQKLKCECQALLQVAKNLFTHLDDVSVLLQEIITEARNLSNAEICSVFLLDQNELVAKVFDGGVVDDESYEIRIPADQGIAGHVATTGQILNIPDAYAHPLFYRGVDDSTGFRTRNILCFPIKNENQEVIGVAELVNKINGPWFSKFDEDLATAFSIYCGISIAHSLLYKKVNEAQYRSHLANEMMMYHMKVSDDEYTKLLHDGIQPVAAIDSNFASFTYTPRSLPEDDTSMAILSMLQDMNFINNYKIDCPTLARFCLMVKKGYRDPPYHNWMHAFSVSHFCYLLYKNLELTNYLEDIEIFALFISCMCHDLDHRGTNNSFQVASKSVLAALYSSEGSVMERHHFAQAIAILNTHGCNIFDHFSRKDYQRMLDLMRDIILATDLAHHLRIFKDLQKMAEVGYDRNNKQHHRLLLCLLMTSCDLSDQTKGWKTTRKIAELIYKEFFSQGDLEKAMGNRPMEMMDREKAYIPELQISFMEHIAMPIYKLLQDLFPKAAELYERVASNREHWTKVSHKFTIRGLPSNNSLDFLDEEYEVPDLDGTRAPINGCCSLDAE
Sequence of Rhesus PDE2A3 (B3VTJ2 1-941): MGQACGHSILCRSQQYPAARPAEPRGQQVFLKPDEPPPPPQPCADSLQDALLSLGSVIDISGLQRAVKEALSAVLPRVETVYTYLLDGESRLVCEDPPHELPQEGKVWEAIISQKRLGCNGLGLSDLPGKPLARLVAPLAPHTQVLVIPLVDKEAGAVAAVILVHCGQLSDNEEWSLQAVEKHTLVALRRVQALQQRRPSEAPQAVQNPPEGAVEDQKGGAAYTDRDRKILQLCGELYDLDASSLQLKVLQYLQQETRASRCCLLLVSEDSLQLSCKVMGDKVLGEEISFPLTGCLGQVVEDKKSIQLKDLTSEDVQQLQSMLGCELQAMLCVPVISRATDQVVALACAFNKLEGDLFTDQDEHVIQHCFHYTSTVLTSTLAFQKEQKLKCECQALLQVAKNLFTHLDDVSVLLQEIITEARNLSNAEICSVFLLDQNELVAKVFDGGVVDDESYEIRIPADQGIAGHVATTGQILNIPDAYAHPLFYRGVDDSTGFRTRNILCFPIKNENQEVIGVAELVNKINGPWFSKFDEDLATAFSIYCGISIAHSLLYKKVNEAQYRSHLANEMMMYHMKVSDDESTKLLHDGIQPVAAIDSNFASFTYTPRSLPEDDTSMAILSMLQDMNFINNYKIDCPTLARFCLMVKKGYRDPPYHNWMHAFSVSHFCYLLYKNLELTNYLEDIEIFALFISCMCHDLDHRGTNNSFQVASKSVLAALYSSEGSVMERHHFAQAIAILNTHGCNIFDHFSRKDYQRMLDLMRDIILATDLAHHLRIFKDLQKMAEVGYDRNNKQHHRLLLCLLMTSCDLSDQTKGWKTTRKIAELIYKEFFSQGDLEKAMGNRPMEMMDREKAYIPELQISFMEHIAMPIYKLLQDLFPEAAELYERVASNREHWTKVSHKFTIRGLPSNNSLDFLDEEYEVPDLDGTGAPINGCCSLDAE

For the compound `C[C@@H](NC(=O)c1cc(=O)[nH]c(-c2ncccn2)n1)c1ccc(C(F)(F)F)c(F)c1` [Example 98, N-{(1R)-1-[3-fluoro-4-(trifluoromethyl)phenyl]ethyl}-6-oxo-1,6-dihydro-2,2′-bipyrimidine-4-carboxamide], the Ki came out at 8.8 nM at Rhesus PDE2A3 (setting [1]), 12 nM at Rhesus PDE2A3 (setting [2]) and 15 nM at human PDE2A1 (setting [3]).
Regarding `CC[C@@H](NC(=O)c1cc(=O)[nH]c(C)n1)c1ccc(OC(F)(F)F)c(F)c1` [Example 39, N-{(1R)-1-[3-fluoro-4-(trifluoromethoxy)phenyl]propyl}-2-methyl-6-oxo-1,6-dihydropyrimidine-4-carboxamide], the Ki at Rhesus PDE2A3 (setting [1]) was found to be 17 nM; on human PDE2A1 (setting [4]), 8.8 nM.
Consider `O=C(N[C@@H](c1ccc(C(F)(F)F)c(F)c1)C1CC1)c1cc(=O)[nH]c(C2CC2)n1` [Example 210, 2-cyclopropyl-N-{(R)-cyclopropyl[3-fluoro-4-(trifluoromethyl)phenyl]methyl}-6-oxo-1,6-dihydropyrimidine-4-carboxamide], for which the inhibition constant (Ki) at Rhesus PDE2A3 (setting [1]) was found to be 6 nM; on human PDE2A1 (setting [4]), 3 nM.
`O=C(NC1(c2ccc(C(F)(F)F)c(F)c2)CC1)c1cc(=O)[nH]c(C2CC2)n1` [Example 202, 2-cyclopropyl-N-{1-[3-fluoro-4-(trifluoromethyl)phenyl]cyclopropyl}-6-oxo-1,6-dihydropyrimidine-4-carboxamide]: the Ki was determined as 7.3 nM at Rhesus PDE2A3 (setting [1]) and 3 nM at human PDE2A1 (setting [4]).
The corresponding values for `Cc1nc(C(=O)NC2(c3ccc(SC(F)(F)F)cc3)CC2)cc(=O)[nH]1` [Example 35, 2-Methyl-6-oxo-N-(1-(4-((trifluoromethyl)thio)phenyl)cyclopropyl)-1,6-dihydroy primidine-4-carboxamide] are 19 nM and 15 nM.
Regarding `COc1cc(CNC(=O)c2cc(=O)[nH]c(-c3ccccc3)n2)cc(OC)c1OC` [Example 338, 6-oxo-2-phenyl-N-(3,4,5-trimethoxybenzyl)-1,6-dihydropyrimidine-4-carboxamide], the Ki stood at 29 nM at Rhesus PDE2A3 (setting [1]), 71 nM at Rhesus PDE2A3 (setting [2]) and 65 nM on human PDE2A1 (setting [3]).
As for `O=C(NC1(c2ccc(C(F)(F)F)cc2)CC1)c1cc(=O)[nH]c(-c2ncccn2)n1` [Example 284, 6-oxo-N-{1-[4-(trifluoromethyl)phenyl]cyclopropyl}-1,6-dihydro-2,2′-bipyrimidine-4-carboxamide], the inhibitory constant (Ki) at Rhesus PDE2A3 (setting [1]) was 43 nM; at human PDE2A1 (setting [4]), 36 nM.
In the case of `CC(C)c1nc(C(=O)N[C@H](C)c2ccc(C(F)(F)F)cc2)cc(=O)[nH]1` [Example 137, 2-(1-methylethyl)-6-oxo-N-{(1R)-1-[4-(trifluoromethyl)phenyl]ethyl}-1,6-dihydropyrimidine-4-carboxamide], the Ki stood at 411 nM on Rhesus PDE2A3 (setting [1]) and 231 nM on human PDE2A1 (setting [4]).
`O=C(N[C@@H](c1ccc(SC(F)(F)F)cc1)C1CC1)c1cc(=O)[nH]c(C2CC2)n1` [Example 214, 2-cyclopropyl-N-[(R)-cyclopropyl{4-[(trifluoromethyl)sulfanyl]phenyl}methyl]-6-oxo-1,6-dihydropyrimidine-4-carboxamide]: the Ki at Rhesus PDE2A3 (setting [1]) turned out to be 5 nM; at human PDE2A1 (setting [4]) it was 2.4 nM.
As to `COCc1nc(C(=O)N[C@@H](c2ccc(SC(F)(F)F)cc2)C(C)C)cc(=O)[nH]1` [Example 120, 2-(methoxymethyl)-N-[(1R)-2-methyl-1-{4-[(trifluoromethyl)sulfanyl]phenyl}propyl]-6-oxo-1,6-dihydropyrimidine-4-carboxamide], the inhibitory constant (Ki) at Rhesus PDE2A3 (setting [1]) is 8.7 nM; at human PDE2A1 (setting [4]), 4.2 nM.
The corresponding values for `Cc1nc(C(=O)NC2(c3ccc(C(F)(F)F)cc3)CCC2)cc(=O)[nH]1` [Example 2, 2-methyl-6-oxo-N-{1-[4-(trifluoromethyl)phenyl]cyclobutyl}-1,6-dihydropyrimidine-4-carboxamide] are 38 nM and 24 nM.
With `CC[C@@H](NC(=O)c1cc(=O)[nH]c(Cc2ccc(OC)c(F)c2)n1)c1ccc(C(F)(F)F)c(F)c1` [Example 527, 2-(3-fluoro-4-methoxybenzyl)-N-{(1R)-1-[3-fluoro-4-(trifluoromethyl)phenyl]propyl}-6-oxo-1,6-dihydropyrimidine-4-carboxamide], the Ki on Rhesus PDE2A3 (setting [2]) was 3.1 nM; on human PDE2A1 (setting [3]) it was 3 nM.
For the compound `O=C(NC1(c2ccc(OC(F)(F)F)cc2)CCC1)c1cc(=O)[nH]c(-c2ccccc2)n1` [Example 282], the results for the Ki at Rhesus PDE2A3 (setting [1]) and on human PDE2A1 (setting [4]) were 124 nM and 61 nM, respectively.
The corresponding values for `C[C@@H](NC(=O)c1cc(=O)[nH]c(-c2ncccn2)n1)c1ccc(OC(F)(F)F)c(F)c1` [Example 103, N-{(1R)-1-[3-fluoro-4-(trifluoromethoxy)phenyl]ethyl}-6-oxo-1,6-dihydro-2,2′-bipyrimidine-4-carboxamide] are 5.5 nM and 3.4 nM.
The corresponding values for `CC(C)[C@@H](NC(=O)c1cc(=O)[nH]c(-c2ncccn2)n1)c1ccc(OC(F)(F)F)cc1` [Example 75, N-{(1R)-2-methyl-1-[4-(trifluoromethoxy)phenyl]propyl}-6-oxo-1,6-dihydro-2,2′-bipyrimidine-4-carboxamide] are 5.1 nM and 3 nM.
Consider `COc1ccc(C(C)(C)c2nc(C(=O)N[C@@H](c3ccc(SC(F)(F)F)c(F)c3)C3CC3)cc(=O)[nH]2)cc1` [Example 497, N-[(R)-cyclopropyl{3-fluoro-4-[(trifluoromethyl)sulfanyl]phenyl}methyl]-2-[1-(4-methoxyphenyl)-1-methylethyl]-6-oxo-1,6-dihydropyrimidine-4-carboxamide], for which the Ki stood at 80 nM at Rhesus PDE2A3 (setting [2]) and 60 nM on human PDE2A1 (setting [3]).
The corresponding values for `C[C@@H](NC(=O)c1cc(=O)[nH]c(-c2ccccc2)n1)c1ccc(C(F)(F)F)c(F)c1F` [Example 408, N-{(1R)-1-[2,3-difluoro-4-(trifluoromethyl)phenyl]ethyl}-6-oxo-2-phenyl-1,6-dihydropyrimidine-4-carboxamide] are 17 nM and 11 nM.
With `CC[C@@H](NC(=O)c1cc(=O)[nH]c(-c2ncccn2)n1)c1ccc(OC(F)(F)F)c(F)c1` [Example 89, N-{(1R)-1-[3-fluoro-4-(trifluoromethoxy)phenyl]propyl}-6-oxo-1,6-dihydro-2,2′-bipyrimidine-4-carboxamide], the Ki at Rhesus PDE2A3 (setting [1]) amounted to 6.4 nM; on Rhesus PDE2A3 (setting [2]) it was 9.3 nM; on human PDE2A1 (setting [3]) it was 9.8 nM.
Regarding `CC(C)(C)[C@@H](NC(=O)c1cc(=O)[nH]c(C2CC2)n1)c1ccc(C2CC2)cc1` [Example 447, 2-cyclopropyl-N-[(1R)-1-(4-cyclopropylphenyl)-2,2-dimethylpropyl]-6-oxo-1,6-dihydropyrimidine-4-carboxamide], the results for the inhibitory constant (Ki) on Rhesus PDE2A3 (setting [2]) and on human PDE2A1 (setting [3]) were 1.3 nM and 1.4 nM, respectively.
Turning to `O=C(N[C@@H](CC(F)(F)F)c1ccc(C(F)(F)F)cc1)c1cc(=O)[nH]c(-c2ccccc2)n1` [Example 366, 6-oxo-2-phenyl-N-{(1S)-3,3,3-trifluoro-1-[4-(trifluoromethyl)phenyl]propyl}-1,6-dihydropyrimidine-4-carboxamide], the inhibition constant (Ki) at Rhesus PDE2A3 (setting [1]) was found to be 132 nM; on Rhesus PDE2A3 (setting [2]), 458 nM; on human PDE2A1 (setting [3]), 386 nM.
For `COc1ccc(Cc2nc(C(=O)N[C@@H](c3ccc(C(F)(F)F)c(F)c3)C3CC3)cc(=O)[nH]2)cc1F` [Example 522, N-{(R)-cyclopropyl[3-fluoro-4-(trifluoromethyl)phenyl]methyl}-2-(3-fluoro-4-methoxybenzyl)-6-oxo-1,6-dihydropyrimidine-4-carboxamide], the inhibitory constant (Ki) is 2.9 nM on Rhesus PDE2A3 (setting [2]) and 2.6 nM on human PDE2A1 (setting [3]).
Consider `Cc1nc(C(=O)N[C@@H](c2ccc(OC(F)(F)F)cc2)C2CC2)cc(=O)[nH]1` [Example 70, N-{(R)-cyclopropyl[4-(trifluoromethoxy)phenyl]methyl}-2-methyl-6-oxo-1,6-dihydropyrimidine-4-carboxamide], for which the inhibition constant (Ki) at Rhesus PDE2A3 (setting [1]) was 25 nM; on Rhesus PDE2A3 (setting [2]) it was 29 nM; at human PDE2A1 (setting [4]), around 14 nM; at human PDE2A1 (setting [3]), 29 nM.
For `COc1ccc2cc(C(C)NC(=O)c3cc(=O)[nH]c(-c4ccccc4)n3)ccc2c1` (stereo not shown) [Example 378, N-[1-(6-methoxynaphthalen-2-yl)ethyl]-6-oxo-2-phenyl-1,6-dihydropyrimidine-4-carboxamide], the results for the inhibitory constant (Ki) at Rhesus PDE2A3 (setting [1]), on Rhesus PDE2A3 (setting [2]) and on human PDE2A1 (setting [3]) were 26 nM, 41 nM and 41 nM, respectively.
Take `COc1ccc(Cc2nc(C(=O)N[C@@H](c3ccc(C(F)(F)F)cc3)C(C)(C)C)cc(=O)[nH]2)cc1` [Example 455, N-{(1R)-2,2-dimethyl-1-[4-(trifluoromethyl)phenyl]propyl}-2-(4-methoxybenzyl)-6-oxo-1,6-dihydropyrimidine-4-carboxamide]: the Ki on Rhesus PDE2A3 (setting [2]) was 0.68 nM; on human PDE2A1 (setting [3]), 0.6 nM.
As to `C[C@@H](NC(=O)c1cc(=O)[nH]c(-c2ccccc2)n1)c1ccc(C2CC2)cc1` [Example 423, N-[(1R)-1-(4-cyclopropylphenyl)ethyl]-6-oxo-2-phenyl-1,6-dihydropyrimidine-4-carboxamide], the values for the Ki at Rhesus PDE2A3 (setting [1]) and on human PDE2A1 (setting [3]) were 3 nM and 5.6 nM, respectively.
Consider `CCc1ccc(C(C)NC(=O)c2cc(=O)[nH]c(C3CC3)n2)cc1` (stereo not shown) [Example 194, 2-cyclopropyl-N-[1-(4-ethylphenyl)ethyl]-6-oxo-1,6-dihydropyrimidine-4-carboxamide], for which the figures for the Ki on Rhesus PDE2A3 (setting [1]) and at human PDE2A1 (setting [4]) were 72 nM and 28 nM, respectively.
The corresponding values for `C[C@@H](NC(=O)c1cc(=O)[nH]c(Cc2ccc(F)cc2)n1)c1ccc(C(F)(F)F)cc1` [Example 132, 2-(4-fluorobenzyl)-6-oxo-N-{(1R)-1-[4-(trifluoromethyl)phenyl]ethyl}-1,6-dihydropyrimidine-4-carboxamide] are 34 nM and 24 nM.
